What all share (assay): microbe, parasite or virus in culture
Holding throughout (format): functional

Assay [1] deals with Listeria monocytogenes. To be noted: ATCC 7644, time 48 hrs.
For assay [2], the system named is Pseudomonas aeruginosa. To be noted: ATCC 50071, time 48 hrs.
The subject of assay [3] is Staphylococcus aureus. To be noted: ATCC 25923, time 48 hrs.
In assay [4] the test system is Acinetobacter baumannii. To be noted: ATCC 19606 = CIP 70.34 = JCM 6841, time 48 hrs.
Assay [5] has as its system Pectobacterium carotovorum. The settings on record: ATCC 15713, time 48 hrs.
Assay [6] concerns Listeria monocytogenes. The settings on record: ATCC 7644, time 48 hrs. The source holds these as a separate data set.
The subject of assay [7] is Pseudomonas aeruginosa. The settings on record: ATCC 50071, time 48 hrs. This is another data set of the same source.
For assay [8], the system named is Staphylococcus aureus. To be noted: ATCC 25923, time 48 hrs. This is another data set of the same source.
Assay [9] has as its system Acinetobacter baumannii. The settings on record: ATCC 19606 = CIP 70.34 = JCM 6841, time 48 hrs. This is another data set of the same source.
For assay [10], the system named is Pectobacterium carotovorum. To be noted: ATCC 15713, time 48 hrs. The source holds these as a separate data set.
In assay [11] the test system is Escherichia coli. To be noted: DSM 8579, time 48 hrs.
The test system of assay [12] is Escherichia coli. To be noted: DSM 8579, time 48 hrs. This is another data set of the same source.
Assay [13] has as its system Listeria monocytogenes. To be noted: ATCC 7644, time 48 hrs. This is another data set of the same source.
Assay [14] has as its system Pseudomonas aeruginosa. The settings on record: ATCC 50071, time 48 hrs. The source holds these as a separate data set.
In assay [15] the test system is Staphylococcus aureus. The settings on record: ATCC 25923, time 48 hrs. The source holds these as a separate data set.
The test system of assay [16] is Acinetobacter baumannii. The settings on record: ATCC 19606 = CIP 70.34 = JCM 6841, time 48 hrs. This is another data set of the same source.
Assay [17] deals with Pectobacterium carotovorum. The settings on record: ATCC 15713, time 48 hrs. This is another data set of the same source.
Assay [18] concerns Listeria monocytogenes. The settings on record: ATCC 7644, time 48 hrs. The source holds these as a separate data set.
Assay [19] concerns Pseudomonas aeruginosa. The settings on record: ATCC 50071, time 48 hrs. The source holds these as a separate data set.
Assay [20] deals with Staphylococcus aureus. The settings on record: ATCC 25923, time 48 hrs. This is another data set of the same source.
The subject of assay [21] is Acinetobacter baumannii. The settings on record: ATCC 19606 = CIP 70.34 = JCM 6841, time 48 hrs. This is another data set of the same source.
The test system of assay [22] is Pectobacterium carotovorum. The settings on record: ATCC 15713, time 48 hrs. The source holds these as a separate data set.
Assay [23] deals with Escherichia coli. The settings on record: DSM 8579, time 48 hrs. The source holds these as a separate data set.
Assay [24] concerns Escherichia coli. The settings on record: DSM 8579, time 48 hrs. This is another data set of the same source.

Turning to `CO[C@@H]1c2cc(C(C)C)c(O)c(O)c2[C@@]23CCCC(C)(C)[C@@H]2[C@@H]1OC3=O`, the inhibition at 4 µg/mL with Listeria monocytogenes [1] was 0%; in the assay with Pseudomonas aeruginosa [2] it was 55.8%; in the assay with Staphylococcus aureus [3], 34.4%; with Acinetobacter baumannii [4] it was 12.7%; in assay [5] it was 35.5%; with Listeria monocytogenes [13], 23.6%. The inhibition at 4 µg/mL is 0% in the assay with Pseudomonas aeruginosa [14], 45.3% in the assay with Staphylococcus aureus [15], 49.2% with Acinetobacter baumannii [16] and 4.4% in [17]. Also, the inhibition at 8 µg/mL with Listeria monocytogenes [6] was 0%; in the assay with Pseudomonas aeruginosa [7], 76.5%; in the assay with Staphylococcus aureus [8], 91.8%; with Acinetobacter baumannii [9] it was 21%; in [10] it was 67.7%; in the assay with Listeria monocytogenes [18], 29.7%. Besides, the inhibition at 8 µg/mL in the assay on Pseudomonas aeruginosa [19] amounted to 1.5%; with Staphylococcus aureus [20], 34.6%; in the assay on Acinetobacter baumannii [21], 38.8%; in [22], 5.7%. The inhibition at 40 µg/mL with Escherichia coli [11] and in the assay on Escherichia coli [23] was 0% in each case. Besides, the inhibition at 80 µg/mL in the assay on Escherichia coli [12] stood at 0%; with Escherichia coli [24], 6.1%.
In the case of `CC(C)c1cc2c(c(O)c1O)C[C@@]1(O)[C@@H](O)CCC(C)(C)[C@@H]1CC2`, the inhibition at 4 µg/mL worked out at 0% in the assay on Listeria monocytogenes [1]; 33.4% in the assay on Pseudomonas aeruginosa [2]; 39.3% in the assay on Staphylococcus aureus [3]; 48.6% in the assay with Acinetobacter baumannii [4]; 0% in [5]; 9.6% in the assay with Listeria monocytogenes [13]. Besides, the inhibition at 4 µg/mL with Pseudomonas aeruginosa [14] was 0%; in the assay on Staphylococcus aureus [15], 75.8%; in the assay on Acinetobacter baumannii [16] it was 0%; in assay [17] it was 0%. The inhibition at 8 µg/mL with Listeria monocytogenes [6] is 0%; with Pseudomonas aeruginosa [7], 65.7%; in the assay with Staphylococcus aureus [8] it was 79.7%; in the assay with Acinetobacter baumannii [9], 51.7%; in assay [10], 0%; in the assay with Listeria monocytogenes [18] it was 13.1%. Further, the inhibition at 8 µg/mL with Pseudomonas aeruginosa [19] amounted to 0%; in the assay with Staphylococcus aureus [20], 78.2%; in the assay with Acinetobacter baumannii [21], 96.7%; in assay [22], 1.5%. For the same compound, the inhibition at 40 µg/mL in the assay on Escherichia coli [11] and in the assay on Escherichia coli [23] was 0% in each case. Besides, the inhibition at 80 µg/mL in the assay with Escherichia coli [12] and in the assay on Escherichia coli [24] was 0% each time.
Turning to `CC(C)c1cc2c(c(O)c1O)[C@@]1(C(=O)O)CCCC(C)(C)[C@@H]1CC2` [CARNOSIC ACID], the inhibition at 4 µg/mL with Listeria monocytogenes [1] is 0%; in the assay with Pseudomonas aeruginosa [2], 51.7%; in the assay with Staphylococcus aureus [3] it was 64.1%; in the assay with Acinetobacter baumannii [4], 18.9%; in [5], 43.6%; in the assay on Listeria monocytogenes [13] it was 33.3%. Also, the inhibition at 4 µg/mL in the assay with Pseudomonas aeruginosa [14] turned out to be 27.7%; in the assay with Staphylococcus aureus [15], 33.5%; in the assay on Acinetobacter baumannii [16], 36.3%; in [17], 41.3%. Also, the inhibition at 8 µg/mL in the assay on Listeria monocytogenes [6] was 0%; with Pseudomonas aeruginosa [7] it was 83%; in the assay on Staphylococcus aureus [8], 83.7%; in the assay with Acinetobacter baumannii [9], 91.2%; in [10], 25.8%; with Listeria monocytogenes [18] it was 55.6%. In addition, the inhibition at 8 µg/mL is 42.7% in the assay on Pseudomonas aeruginosa [19], 35.5% in the assay on Staphylococcus aureus [20], 57% with Acinetobacter baumannii [21] and 47.3% in assay [22]. Besides, the inhibition at 40 µg/mL with Escherichia coli [11] came out at 60%; with Escherichia coli [23], 2.7%. In addition, the inhibition at 80 µg/mL in the assay on Escherichia coli [12] worked out at 78.5%; in the assay with Escherichia coli [24] it was 10.7%.
As for `CC(C)c1cc2c(c(O)c1O)[C@@]13CCCC(C)(C)[C@@H]1C[C@@H]2OC3=O` [CARNOSOL], the inhibition at 4 µg/mL is 17.2% in the assay with Listeria monocytogenes [1]; 39% with Pseudomonas aeruginosa [2]; 95.9% with Staphylococcus aureus [3]; 43.2% in the assay on Acinetobacter baumannii [4]; 49.1% in [5]; 27.6% in the assay with Listeria monocytogenes [13]. In addition, the inhibition at 4 µg/mL amounted to 0% in the assay with Pseudomonas aeruginosa [14], 68.2% in the assay on Staphylococcus aureus [15], 7.1% in the assay with Acinetobacter baumannii [16] and 35.8% in [17]. The inhibition at 8 µg/mL with Listeria monocytogenes [6] was 46.7%; with Pseudomonas aeruginosa [7], 88.5%; in the assay with Staphylococcus aureus [8], 100%; in the assay with Acinetobacter baumannii [9] it was 47.2%; in assay [10], 100%; in the assay on Listeria monocytogenes [18] it was 40.4%. Moreover, the inhibition at 8 µg/mL was 5.4% in the assay with Pseudomonas aeruginosa [19], 84.8% in the assay on Staphylococcus aureus [20], 49% with Acinetobacter baumannii [21] and 69.1% in [22]. Also, the inhibition at 40 µg/mL in the assay on Escherichia coli [11] and in the assay with Escherichia coli [23] was 0% each time. The inhibition at 80 µg/mL in the assay with Escherichia coli [12] and in the assay on Escherichia coli [24] was 0% throughout.
As for `COc1cc2oc(-c3ccc(O)cc3)cc(=O)c2c(O)c1OC` [CIRSIMARITIN], the inhibition at 4 µg/mL with Listeria monocytogenes [1] worked out at 54%; in the assay on Pseudomonas aeruginosa [2], 47.9%; in the assay on Staphylococcus aureus [3] it was 0%; in the assay with Listeria monocytogenes [13], 26.9%; in the assay on Pseudomonas aeruginosa [14] it was 0%; in the assay with Staphylococcus aureus [15], 0%. Moreover, the inhibition at 8 µg/mL came to 65.2% with Listeria monocytogenes [6]; 83.7% with Pseudomonas aeruginosa [7]; 6.6% with Staphylococcus aureus [8]; 39% in the assay with Listeria monocytogenes [18]; 40.2% in the assay on Pseudomonas aeruginosa [19]; 52.6% in the assay on Staphylococcus aureus [20]. In addition, the inhibition at 40 µg/mL with Escherichia coli [11] was determined as 37.7%; with Escherichia coli [23], 44.2%. Moreover, the inhibition at 80 µg/mL in the assay on Escherichia coli [12] was found to be 65.3%; with Escherichia coli [24] it was 50%.
For `CC(C)c1cc2c(c(O)c1O)[C@@]13CCCC(C)(C)[C@@H]1[C@H](OC3=O)[C@@H]2O` [EPIROSMANOL], the inhibition at 4 µg/mL in the assay on Listeria monocytogenes [1] came to 0%; with Pseudomonas aeruginosa [2], 70.7%; in the assay with Staphylococcus aureus [3], 68.4%; in the assay with Acinetobacter baumannii [4] it was 26.3%; in assay [5], 33.6%; with Listeria monocytogenes [13] it was 24.7%. In addition, the inhibition at 4 µg/mL in the assay on Pseudomonas aeruginosa [14] was 0%; with Staphylococcus aureus [15] it was 0%; in the assay on Acinetobacter baumannii [16], 8.9%; in [17] it was 32.5%. Further, the inhibition at 8 µg/mL in the assay on Listeria monocytogenes [6] is 63.4%; with Pseudomonas aeruginosa [7], 74.8%; in the assay on Staphylococcus aureus [8] it was 81.7%; in the assay on Acinetobacter baumannii [9], 56.9%; in assay [10] it was 53.8%; with Listeria monocytogenes [18], 55.6%. In addition, the inhibition at 8 µg/mL is 9.2% with Pseudomonas aeruginosa [19], 23.6% in the assay on Staphylococcus aureus [20], 11.1% with Acinetobacter baumannii [21] and 56.3% in [22]. The inhibition at 40 µg/mL in the assay with Escherichia coli [11] and with Escherichia coli [23] was 0% each time. In addition, the inhibition at 80 µg/mL in the assay with Escherichia coli [12] turned out to be 11.3%; in the assay with Escherichia coli [24], 0%.
`CC(C)c1cc2c(cc1O)[C@@]1(C)CCCC(C)(C)[C@@H]1CC2` [FERRUGINOL]: the inhibition at 4 µg/mL turned out to be 35.6% in the assay with Listeria monocytogenes [1]; 52.2% in the assay on Pseudomonas aeruginosa [2]; 38.5% with Staphylococcus aureus [3]; 0% in the assay on Listeria monocytogenes [13]; 20.3% in the assay with Pseudomonas aeruginosa [14]; 0% in the assay with Staphylococcus aureus [15]. For the same compound, the inhibition at 8 µg/mL worked out at 60.9% in the assay on Listeria monocytogenes [6]; 53.2% with Pseudomonas aeruginosa [7]; 44.6% in the assay with Staphylococcus aureus [8]; 14.2% in the assay with Listeria monocytogenes [18]; 45.2% in the assay with Pseudomonas aeruginosa [19]; 27.9% with Staphylococcus aureus [20]. Besides, the results for the inhibition at 40 µg/mL with Escherichia coli [11] and in the assay on Escherichia coli [23] were 19.2% and 9.1%, respectively. Further, the inhibition at 80 µg/mL in the assay on Escherichia coli [12] was determined as 37.5%; in the assay on Escherichia coli [24], 24.7%.
`CC(C)c1cc2c(c(O)c1O)C1=C(CC2)C(C)(C)CCC1=O` [SAGEONE]: the inhibition at 4 µg/mL in the assay on Listeria monocytogenes [1], in the assay on Pseudomonas aeruginosa [2], in the assay with Staphylococcus aureus [3], in the assay with Listeria monocytogenes [13], in the assay with Pseudomonas aeruginosa [14] and in the assay on Staphylococcus aureus [15] was 0% in each case. Besides, the inhibition at 8 µg/mL turned out to be 0.9% with Listeria monocytogenes [6]; 0% in the assay on Pseudomonas aeruginosa [7]; 0% in the assay on Staphylococcus aureus [8]; 0.9% in the assay on Listeria monocytogenes [18]; 0% in the assay on Pseudomonas aeruginosa [19]; 0% in the assay with Staphylococcus aureus [20]. The inhibition at 40 µg/mL in the assay on Escherichia coli [11] turned out to be 13.7%; with Escherichia coli [23], 6.8%. Further, the inhibition at 80 µg/mL was determined as 45.5% with Escherichia coli [12] and 24.6% in the assay with Escherichia coli [24].

As usually defined, the inhibition is the percentage by which the read-out fell short of the control.

Values taken from ChEMBL document CHEMBL4813932, “Terpenoid Constituents of Perovskia artemisioides Aerial Parts with Inhibitory Effects on Bacterial Biofilm Growth” (2021).
